Measurements from the NIST ThermoML archive (doi:10.1021/je900599q).
± gives the expanded uncertainty stated by the source.

Details: 298.2 K; 101.33 kPa; Liquid; Pycnometric method

mass density: 796 ± 1 kg/m3
SMILES: CO [methanol]
